# Results taken from publication PMC9221371, “Flavonoid Derivatives as Potential Cholinesterase Inhibitors in Scopolamine-Induced Amnesic Mice: An In Vitro, In Vivo and Integrated Computational Approach” (Brain Sciences, 2022).
# Like-named read-outs stand apart in the source and are kept apart here.
# Columns and labels:
# [1] = biological target: T1, brain acetylcholinesterase (Mus musculus, UniProt P21836); assay type: in vivo; set-up: unit not given here; settings: brain homogenate, n = 8
# T1 construct: The brain was extracted, and a homogenate (10% w/v) in 0.1 M of phosphate buffer (pH 7.4) was prepared; from tissue; host or cells: mouse brain homogenate
# Experimental: (§1) The animals in the control (normal) and scopolamine amnesic groups were administered vehicle (Tween-80, 2%) only. Treated animals received F1–F5 suspended in Tween-80 (2%) p.o. at their respective doses for a period of 4 weeks. […] For assessing behavioral effects using the Y-Maze Paradigm and novel object discrimination (NOD) task, scopolamine (1 mg/kg, i.p.) was given to the different groups, 30 min after the respective treatments, to induce memory impairment (amnesia) in mice. All of the tests were performed between 8:00 a.m. and 6:00 p.m. to avoid sham results in the performance of the animals.
# (§2) The brain was extracted, and a homogenate (10% w/v) in 0.1 M of phosphate buffer (pH 7.4) was prepared by centrifugation for the assessment of brain oxidative status and estimating brain acetylcholinesterase activity. Catalase (CAT), superoxide dismutase (SOD), glutathione (GSH) and level of lipid peroxidation (malondialdehyde, MDA) were quantified as oxidative stress markers.
# [2] = test system: brains of scopolamine-induced amnesic mice; assay: Antioxidant enzyme activities and oxidative stress markers in brain homogenate; assay type: in vivo, Balb/C mice
# Experimental: as §1, §2
# [3] = test system: scopolamine-induced amnesic mice; assay: Novel object discrimination (NOD) task in scopolamine-induced amnesic model; assay type: in vivo, Balb/C mice; settings: scopolamine 1 mg/kg i.p., n = 8
# Experimental: as §1
# (§3) Behavioral tasks on the Y-Maze Paradigm and “NOD” tasks were conducted in the 5th week of study to determine learning and memory functions. The apparatus arena was cleaned with 70% ethanol during the inter-trial interval to prevent a confounding error due to the influence of odor [20, 21].
# Animals were challenged for the novel object discrimination task for F1–F5 as per previously reported protocols. After habituation and acclimatization, animals in each group had two consecutive object exploration trials (5 min each) for this test, with a break of 4 h in between two trials. In the familiarization phase (sample), the animals were challenged to explore two objects similar to each other. In the second phase (test), any of the two objects was changed by a new object. Exploration time in sec for the objects, including chewing, licking, sniffing or pointing the vibrissae of nose towards the object, was recorded. The discrimination ratio (%DI) was then determined using:(T novel object − T familiar object)/(T novel object + T familiar object) × 100(1)
# [4] = test system: scopolamine-induced amnesic mice; assay: Y-Maze Paradigm, spontaneous alternation in scopolamine-induced amnesic model; assay type: in vivo, Balb/C mice; settings: for Spontaneous Alternation Performance: scopolamine 1 mg/kg i.p., n = 8
# Description: (§4) For assessment of acute toxicity of the flavones (F1–F5), animals (21 in number) were divided into groups of 3 animals each. The reported protocols by Lorke were followed with slight modification to perform tests in two phases. In the first phase, one (control) group of animals were given Tween-80 (2%), and oral doses of F1–F5 were given to the remaining groups, respectively, at various doses (mg/kg body weight). […] The animals were housed in plastic cages. After two weeks, the animals were sacrificed by euthanasia with isoflurane in a humane manner for assessment of the effects on total weight and weight of the vital organs. The biochemical parameters of blood and histological studies of vital organs (kidney and liver tissue) were also assessed. […] The preliminary pharmacological activity was assessed at various dose concentrations of F1–F5 (2.5–20 mg/kg b.w.) to determine the effective dose for assessment of cognitive function using animal models.
# as §1, §3
# The Y-Maze task is a non-invasive and reliable behavioral test that was used for memory assessment of spontaneous alternation for F1–F5 based on previously reported protocols. A single session of Y-Maze was used to record the spontaneous alternation behavior of the animals to determine exploratory behavior and instant memory functioning. The apparatus was made of three arms in a “Y” shape (35 cm × 8 cm × 15 cm) with an equilateral triangular central area. In brief, each of the mice, previously naive to the maze, was placed at the terminal end of one arm. The animals were allowed to move and explore freely for 8 min through the maze. The number of arm entries was noted. One arm entry was considered when the hind paws of the animal were completely placed inside the arm, and the series of arm entries were documented. The spontaneous alternation in percent was calculated.
# [5] = biological target: T2, AChE (electric eel type-VI-S) (Electrophorus electricus, UniProt O42275); assay: biochemical; settings: 25 °C, triplicate
# T2 construct: purchased Sigma-Aldrich (Taufkirchen, Germany)
# Experimental: (§5) Synthetic flavonoids F1–F5 previously synthesized by our group were used in the study.
# (§6) For the determination of acetylcholinesterase inhibitory potentials, AChE and BuChE were used. […] To the tube were added DTNB (100 µL) and buffer (2.4 mL). The tube was incubated at 25 °C for 5 min as pre-incubation. The reaction was started by adding ATChI (40 µL), and the mixture was incubated at 25 °C for 20 min. The absorbance at 412 nm was measured spectrophotometrically in triplicate. […] The data were recorded in triplicate, and IC50 was calculated.
# [6] = biological target: T3, BuChE (equine serum lyophilized) (Equus caballus, UniProt P81908); assay: biochemical; settings: triplicate; read-out: BChE IC50 (converted)
# T3 construct: purchased Sigma-Aldrich (Taufkirchen, Germany); host or cells: equine serum
# Experimental: as §5, §6
# Balb/C mice = assay: Acute toxicity study; assay type: in vivo; settings: n = 3; for ALP / AST / Creatinine / Glucose / Total Cholesterol / Triglyceride: blood; for Kidney Weight / Liver Weight / Total Weight: mice
# Description: Two weeks before the experiment, the animals were acclimatized to laboratory conditions.
# as §4
# [7] = 7.5 mg/kg b.w., n = 8, 7.5 mg/kg
# T3 sequence (P81908 whole entry): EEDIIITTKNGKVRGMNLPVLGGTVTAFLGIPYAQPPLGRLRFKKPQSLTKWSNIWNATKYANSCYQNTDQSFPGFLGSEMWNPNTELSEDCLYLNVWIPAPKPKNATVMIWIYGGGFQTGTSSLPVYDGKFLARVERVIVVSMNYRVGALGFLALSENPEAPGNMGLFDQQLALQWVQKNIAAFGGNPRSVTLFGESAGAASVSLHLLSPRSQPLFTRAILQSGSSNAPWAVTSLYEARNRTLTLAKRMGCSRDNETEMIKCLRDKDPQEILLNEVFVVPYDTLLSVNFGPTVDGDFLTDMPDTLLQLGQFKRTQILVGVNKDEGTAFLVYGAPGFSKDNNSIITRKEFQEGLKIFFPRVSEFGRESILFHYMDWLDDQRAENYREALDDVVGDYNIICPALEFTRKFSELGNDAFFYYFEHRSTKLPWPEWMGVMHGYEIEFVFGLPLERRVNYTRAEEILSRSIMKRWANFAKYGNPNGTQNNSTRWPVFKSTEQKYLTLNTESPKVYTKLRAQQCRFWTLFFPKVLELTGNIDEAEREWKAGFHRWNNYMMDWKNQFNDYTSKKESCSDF
# T2 sequence (O42275 24-633): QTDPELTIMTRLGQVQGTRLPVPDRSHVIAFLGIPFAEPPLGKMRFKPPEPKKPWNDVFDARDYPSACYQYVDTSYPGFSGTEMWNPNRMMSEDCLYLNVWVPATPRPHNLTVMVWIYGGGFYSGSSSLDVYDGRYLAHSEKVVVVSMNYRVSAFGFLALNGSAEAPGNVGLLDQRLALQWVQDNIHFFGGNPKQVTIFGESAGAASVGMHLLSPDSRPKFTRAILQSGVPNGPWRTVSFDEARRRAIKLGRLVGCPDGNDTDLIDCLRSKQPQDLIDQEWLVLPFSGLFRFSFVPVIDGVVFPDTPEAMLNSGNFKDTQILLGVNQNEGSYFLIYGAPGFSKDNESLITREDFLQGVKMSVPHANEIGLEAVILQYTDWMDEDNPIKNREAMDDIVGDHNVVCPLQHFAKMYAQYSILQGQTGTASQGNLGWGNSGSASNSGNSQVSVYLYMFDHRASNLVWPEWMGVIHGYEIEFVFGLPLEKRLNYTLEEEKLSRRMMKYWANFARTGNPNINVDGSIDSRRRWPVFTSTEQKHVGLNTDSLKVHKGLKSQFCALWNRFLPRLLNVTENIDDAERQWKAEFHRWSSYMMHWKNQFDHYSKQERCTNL
# T1 sequence (P21836 32-614): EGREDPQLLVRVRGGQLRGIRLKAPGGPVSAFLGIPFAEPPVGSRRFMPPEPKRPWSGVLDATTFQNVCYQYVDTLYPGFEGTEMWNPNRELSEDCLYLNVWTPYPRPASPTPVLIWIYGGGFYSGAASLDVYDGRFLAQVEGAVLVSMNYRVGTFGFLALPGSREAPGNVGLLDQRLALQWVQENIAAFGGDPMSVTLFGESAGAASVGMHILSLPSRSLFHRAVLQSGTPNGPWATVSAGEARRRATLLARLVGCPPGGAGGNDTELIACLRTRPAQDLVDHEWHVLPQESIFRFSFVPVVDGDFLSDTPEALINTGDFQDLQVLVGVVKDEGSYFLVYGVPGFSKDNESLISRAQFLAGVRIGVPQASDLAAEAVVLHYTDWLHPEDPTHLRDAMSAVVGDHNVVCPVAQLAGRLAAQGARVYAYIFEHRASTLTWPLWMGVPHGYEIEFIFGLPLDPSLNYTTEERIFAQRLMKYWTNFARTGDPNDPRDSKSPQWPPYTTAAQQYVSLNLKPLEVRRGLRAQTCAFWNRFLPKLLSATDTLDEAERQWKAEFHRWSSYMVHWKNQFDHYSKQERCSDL
structure (smiles),measurement,setting,value
O=c1cc(-c2cc(Cl)ccc2Cl)oc2ccccc12 [Compound F5],level of AChE,[1]; 7.5 mg/kg b.w.,15.34 ± 0.69
same,level of AChE,[1]; 15 mg/kg b.w.,14.67 ± 0.67
same,GSH,"[2]; 7.5 mg/kg b.w., n = 8",37.28 ± 1.60 μg/mg of Protein
same,MDA,"[2]; 7.5 mg/kg b.w., n = 8",14.98 ± 1.22 nmol/mg Protein
same,CAT,[2]; [7],24.18 ± 1.41 U/mg of Protein
same,SOD,[2]; [7],9.88 ± 1.49 U/mg of Protein
same,GSH,"[2]; 15 mg/kg b.w., n = 8",39.01 ± 1.39 μg/mg of Protein
same,MDA,"[2]; 15 mg/kg b.w., n = 8",14.48 ± 1.38 nmol/mg Protein
same,CAT,"[2]; 15 mg/kg b.w., n = 8, 15 mg/kg",24.91 ± 1.29 U/mg of Protein
same,SOD,"[2]; 15 mg/kg b.w., n = 8, 15 mg/kg",10.20 ± 1.62 U/mg of Protein
same,discrimination index (%DI),[3]; 7.5 mg/kg b.w. p.o. 4 weeks,59.76 ± 1.24%
same,discrimination index (%DI),[3]; 15 mg/kg b.w. p.o. 4 weeks,62.12 ± 1.28%
same,Spontaneous Alternation Performance,[4]; 7.5 mg/kg b.w. p.o. 4 weeks,67.94 ± 1.51%
same,Spontaneous Alternation Performance,[4]; 15 mg/kg b.w. p.o. 4 weeks,73.11 ± 1.63%
same,"Spontaneous alternation performance (preliminary, selection of doses)","[4]; Table S1, dose 2.5 mg/kg b.w.",38.63±1.78
same,"Spontaneous alternation performance (preliminary, selection of doses)","[4]; Table S1, dose 5 mg/kg b.w.",43.87±1.94
same,"Spontaneous alternation performance (preliminary, selection of doses)","[4]; Table S1, dose 7.5 mg/kg b.w.",66.53±1.89
same,"Spontaneous alternation performance (preliminary, selection of doses)","[4]; Table S1, dose 10 mg/kg b.w.",66.97±1.72
same,"Spontaneous alternation performance (preliminary, selection of doses)","[4]; Table S1, dose 12.5 mg/kg b.w.",67.33±2.05
same,IC50,[5],338 µM
same,IC50,[6],376 µM
same,ALP,Balb/C mice; 600 mg/kg b.w. oral,134.41 ± 2.81 U/L
same,AST,Balb/C mice; 600 mg/kg b.w. oral,108.37 ± 1.97 U/L
same,Creatinine,Balb/C mice; 600 mg/kg b.w. oral,0.28 ± 0.04 mg/dL
same,Glucose,Balb/C mice; 600 mg/kg b.w. oral,86.98 ± 2.12 mg/dL
same,Total Cholesterol,Balb/C mice; 600 mg/kg b.w. oral,102.91 ± 1.93 mg/dL
same,Triglyceride,Balb/C mice; 600 mg/kg b.w. oral,95.31 ± 2.61 mg/dL
same,Kidney Weight,Balb/C mice; 600 mg/kg b.w. oral,0.30 ± 0.21 g
same,Liver Weight,Balb/C mice; 600 mg/kg b.w. oral,1.24 ± 0.25 g
same,Total Weight,Balb/C mice; 600 mg/kg b.w. oral,20.97 ± 1.66 g
same,ALP,Balb/C mice; 1000 mg/kg b.w. oral,135.87 ± 2.24 U/L
same,AST,Balb/C mice; 1000 mg/kg b.w. oral,107.41 ± 2.03 U/L
same,Creatinine,Balb/C mice; 1000 mg/kg b.w. oral,0.35 ± 0.05 mg/dL
same,Glucose,Balb/C mice; 1000 mg/kg b.w. oral,87.01 ± 2.21 mg/dL
same,Total Cholesterol,Balb/C mice; 1000 mg/kg b.w. oral,103.02 ± 1.79 mg/dL
same,Triglyceride,Balb/C mice; 1000 mg/kg b.w. oral,96.08 ± 2.01 mg/dL
same,Kidney Weight,Balb/C mice; 1000 mg/kg b.w. oral,0.31 ± 0.24 g
same,Liver Weight,Balb/C mice; 1000 mg/kg b.w. oral,1.22 ± 0.29 g
same,Total Weight,Balb/C mice; 1000 mg/kg b.w. oral,21.88 ± 1.89 g
same,ALP,Balb/C mice; 2000 mg/kg b.w. oral,133.91 ± 3.71 U/L
same,AST,Balb/C mice; 2000 mg/kg b.w. oral,108.39 ± 1.89 U/L
same,Creatinine,Balb/C mice; 2000 mg/kg b.w. oral,0.33 ± 0.06 mg/dL
same,Glucose,Balb/C mice; 2000 mg/kg b.w. oral,86.89 ± 1.98 mg/dL
same,Total Cholesterol,Balb/C mice; 2000 mg/kg b.w. oral,102.73 ± 2.10 mg/dL
same,Triglyceride,Balb/C mice; 2000 mg/kg b.w. oral,95.37 ± 1.98 mg/dL
same,Kidney Weight,Balb/C mice; 2000 mg/kg b.w. oral,0.29 ± 0.20 g
same,Liver Weight,Balb/C mice; 2000 mg/kg b.w. oral,1.26 ± 0.21 g
same,Total Weight,Balb/C mice; 2000 mg/kg b.w. oral,22.91 ± 1.67 g
same,ALP,Balb/C mice; 3000 mg/kg b.w. oral,134.02 ± 3.28 U/L
same,AST,Balb/C mice; 3000 mg/kg b.w. oral,107.76 ± 1.92 U/L
same,Creatinine,Balb/C mice; 3000 mg/kg b.w. oral,0.30 ± 0.04 mg/dL
same,Glucose,Balb/C mice; 3000 mg/kg b.w. oral,85.34 ± 2.01 mg/dL
same,Total Cholesterol,Balb/C mice; 3000 mg/kg b.w. oral,103.09 ± 1.83 mg/dL
same,Triglyceride,Balb/C mice; 3000 mg/kg b.w. oral,96.50 ± 2.05 mg/dL
same,Kidney Weight,Balb/C mice; 3000 mg/kg b.w. oral,0.30 ± 0.19 g
same,Liver Weight,Balb/C mice; 3000 mg/kg b.w. oral,1.23 ± 0.25 g
same,Total Weight,Balb/C mice; 3000 mg/kg b.w. oral,22.65 ± 1.91 g
O=c1cc(-c2cccc(Cl)c2Cl)oc2ccccc12 [Compound F3],CAT,"[2]; 7.5 mg/kg b.w., n = 8",22.97 ± 1.71 U/mg of Protein
same,GSH,"[2]; 7.5 mg/kg b.w., n = 8",35.61 ± 1.55 μg/mg of Protein
same,MDA,"[2]; 7.5 mg/kg b.w., n = 8",16.37 ± 1.13 nmol/mg Protein
same,SOD,"[2]; 7.5 mg/kg b.w., n = 8",9.19 ± 1.21 U/mg of Protein
same,CAT,"[2]; 15 mg/kg b.w., n = 8",24.50 ± 1.41 U/mg of Protein
same,GSH,"[2]; 15 mg/kg b.w., n = 8",36.98 ± 1.66 μg/mg of Protein
same,MDA,"[2]; 15 mg/kg b.w., n = 8",15.94 ± 1.65 nmol/mg Protein
same,SOD,"[2]; 15 mg/kg b.w., n = 8",9.41 ± 1.29 U/mg of Protein
same,Spontaneous Alternation Performance,[4]; 7.5 mg/kg b.w. p.o. 4 weeks,59.61 ± 1.61 %
same,Spontaneous Alternation Performance,[4]; 15 mg/kg b.w. p.o. 4 weeks,65.78 ± 1.57 %
same,IC50,[5],434 µM
same,IC50,[6],505 µM
